Earlier results in patent publication US8091275B2, “pH buffered plant nutrient compositions and methods for growing plants” (AeroGrow International, priority 2004, dated 2012).

Test system: plants
Conditions: phosphorous maintained at levels adequate to stabilize pH (1 to 10 mM)

For phosphorous, the toxicity to plants is listed as “toxic to plants”.
